Earlier results in patent publication US20110196036A1, “USE OF BETAINE” (DANISCO A/S, priority 2008, published 2011).

Conditions: pure form; water and lower alcohols

C[N+](C)(C)CC(=O)[O-] [betaine, trimethylglycine]
solubility: readily soluble in water and lower alcohols
